We go through 8 compounds from patent US8486374B2, “Hydrophilic, non-aqueous pharmaceutical carriers and compositions and uses” (Foamix Ltd., priority 2004, dated 2013).

Data set [1] can be described thus: Solubility of the active agent in solvents/carriers. The note with it: in the polyol and DMI mixture (Example 19 composition). The format is physicochemical.
Data set [2] in a line: Foam appearance (color, odor, form). Further details: key to ODOR: No odor (N.O.); key to COLOR: white (W). The format is physicochemical.
Data set [3] can be described thus: Shakability of the composition. Format: physicochemical. From the text: ‘Shakability’ means that the composition contains some or sufficient flow to allow the composition to be mixed or remixed on shaking. That is, it has fluid or semi fluid properties. A breakable foam is that is thermally stable, yet breaks under sheer force.
‘Shakability’ means that the composition contains some or sufficient flow to allow the composition to be mixed or remixed on shaking. That is, it has fluid or semi fluid properties. In some very limited cases it may still be possible to have a foamable composition which is flowable but not apparently shakable.

For data set [4] the following is noted: anti-inflammatory steroids at typical concentration in topical products (triamcinolone acetonide 0.025%-0.1% medium, 0.5% high); cited from earlier work.
Data set [5] in a line: Predicted physical characteristics of the resultant foam after adding an active agent. Format: physicochemical. Particulars: predicted on adding the active (BMV […] w/w; estradiol hemihydrate about 0.0051% w/w) with modulating agent to the carrier of the example at the place.
Data set [6] in a line: Chemical stability: amount of active agent in foam by HPLC on storage. The format is physicochemical. On the procedure: The amount of active agent present is analyzed in foam expelled from various pressurized canisters containing foam formulations using HPLC. Analysis is carried out at zero time and at appropriate time intervals thereafter. The canisters are stored in controlled temperature incubators at 5° C., at 25° C., at, 40° C. and at 50° C. At appropriate time intervals canisters are removed and the amount of active agent in the foam sample is measured. […] All samples were stored at 50° C. for 4 weeks, in order to assess their stability. The following table provides the results of this short-term stability study, which indicated high compatibility between the polyol composition and the steroid drugs, which are known to be temperature-sensitive.

Data set [7] can be described thus: Foam quality grading upon release from the aerosol container. Format: physicochemical. The note with it: active agent in stock of PEG-400 97.5, hydroxypropyl cellulose 0.5, steareth 2 2.0 (first Example 29). From the text:
Foam quality can be graded as follows:
Grade FG (fairly good): a moderate amount of creaminess noticeable, bubble structure is noticeable; upon spreading on the skin the product dulls rapidly and becomes somewhat lower in apparent viscosity.
Grade F (fair): very little creaminess noticeable, larger bubble structure than a “fairly good” foam, upon spreading on the skin it becomes thin in appearance and watery.
Grade P (poor): no creaminess noticeable, large bubble structure, and when spread on the skin it becomes very thin and watery in appearance.
Grade VP (very poor): dry foam, large very dull bubbles, difficult to spread on the skin.

For data set [8] the following is noted: cited from earlier work.
Another data set relates to candida albicans. Put plainly: Comparative in-vitro antifungal activity (Petri dish spreading). The format is cell-based. From the text:
An exemplary case for the inclusion of an anti-infective agent in a hygroscopic composition is provided herewith. […] Thus, combining an antifungal agent in a hygroscopic composition results in an expansion of the spectrum of infective strains that can benefit form the therapy, and furthermore, in can render an improved effect of such a composition on mixed infections or in infections that are not accurately diagnosed.
A comparative in-vitro study was set to evaluate the effect of Composition A, consisting of 2% terbinafine, 95.3% gr. polyethylene glycol, 0.5% hydroxypropyl cellulose and 2.2% steareth-2, in comparison with Composition B (an oil in water emulsion containing 2% terbinafine) and Composition C a commercial 1% bifonazole cream.
Three fungal strains (microsporum canis, trichophyton mentagrophytes and trichophyton rubrum) and one yeast (candida albicans) were seeded in the center of a Petri dish, and then, were surrounded by a film containing each of the compositions, using a swab, soaked with each of the compositions. The proliferation and spreading of the microorganisms was followed up for 14 day by visual and photographic observations.

The mark [9] stands for this setting: active agent in stock of PEG-400 97.5, hydroxypropyl cellulose 0.5, steareth 2 2.0 (first Example 29).
Setting [10] is: active agent in stock of propylene glycol 46, glycerin 33, dimethyl isosorbide 15, stearyl alcohol, hydroxypropyl cellulose, laureth-4, GMS/PEG 100 stearate (Example 30).
The mark [11] stands for this setting: active agent in stock of propylene glycol 91, stearyl alcohol 2, Klucel EF 2, laureth-4 2, glyceryl monostearate/PEG 100 stearate 3 (second Example 29).

Like-named read-outs stand apart in the source and are kept apart here.

With `Nc1nc2c(ncn2COCCO)c(=O)[nH]1` [Acyclovir], the solubility result in data set [1] is “not fully soluble”. Moreover, the COLOR entry in [2] (setting [9]) is “W”; in data set [2] (setting [10]) it was “O.W”; in data set [2] (setting [11]), “O.W”. In addition, the ODOR entry in [2] (setting [9]), in data set [2] (setting [10]) and in [2] (setting [11]) was “N.O” throughout. The SHAKABILITY result in data set [3] (setting [9]), in [3] (setting [10]) and in [3] (setting [11]) was “Yes” throughout.
Take `CCCCC(=O)O[C@]1(C(=O)CO)[C@@H](C)C[C@H]2[C@@H]3CCC4=CC(=O)C=C[C@]4(C)[C@@]3(F)[C@@H](O)C[C@@]21C` [Betamethasone 17 valerate micronized, Betamethasone 17 valerate]: in [4], the “Relative Potency” value is on record as “Medium Potency”. Further, the “effect on the physical characteristics of the resultant foam” value in data set [5] was “minimal effect”. In addition, the COLOR entry in data set [2] (setting [9]), in data set [2] (setting [10]) and in data set [2] (setting [11]) was “W” each time. For the same compound, the ODOR entry in [2] (setting [9]), in data set [2] (setting [10]) and in data set [2] (setting [11]) was “N.O” in each case. The SHAKABILITY result in data set [3] (setting [9]), in data set [3] (setting [10]) and in data set [3] (setting [11]) was “Yes” in each case.
Turning to `CCC(=O)OCC(=O)[C@@]1(OC(=O)CC)[C@@H](C)C[C@H]2[C@@H]3CCC4=CC(=O)C=C[C@]4(C)[C@@]3(F)[C@@H](O)C[C@@]21C` [Bethamethasone Dipropionate], in data set [4], the “Relative Potency” value is “High Potency”. Also, the “% Degradation after 4 weeks at 50° C.” value in data set [6] (4 weeks) is 0%.
Consider `O=C(O)Cc1ccccc1Nc1c(Cl)cccc1Cl` [Diclofenac sodium], for which, in data set [7], the QUALITY result is “G+”. For the same compound, the COLOR entry in data set [2] (setting [9]), in data set [2] (setting [10]) and in data set [2] (setting [11]) was “W” each time. Moreover, the ODOR entry in [2] (setting [9]), in [2] (setting [10]) and in data set [2] (setting [11]) was “N.O” in each case. For the same compound, the SHAKABILITY result in data set [3] (setting [9]), in data set [3] (setting [10]) and in [3] (setting [11]) was “Yes” in each case.
Regarding `C[C@]12CC[C@@H]3c4ccc(O)cc4CC[C@H]3[C@@H]1CC[C@@H]2O` [Estradiol hemihydrate], in [5], the “effect on the physical characteristics of the resultant foam” value is recorded as “minimal effect”.
Take `CCCC(=O)O[C@]1(C(=O)CO)CC[C@H]2[C@@H]3CCC4=CC(=O)CC[C@]4(C)[C@H]3[C@@H](O)C[C@@]21C` [Hydrocortison Butyrate]: the “% Degradation after 4 weeks at 50° C.” value worked out at 2.6% in data set [6] (steroid in TECH-PG 032, stored at 50° C. for 4 weeks) and 2.8% in data set [6] (steroid in TECH-PG 033, stored at 50° C. for 4 weeks).
Consider `C/C(=C\C(=O)OCCCCCCCCC(=O)O)C[C@@H]1OC[C@H](C[C@@H]2O[C@H]2[C@@H](C)[C@H](C)O)[C@@H](O)[C@H]1O` [Mupirocin], for which the solubility result in data set [8] (in mineral oil and other commonly used ointment solvents) is “practically insoluble”. Moreover, the COLOR entry in data set [2] (setting [9]) and in [2] (setting [11]) was “W” each time. For the same compound, the ODOR result in [2] (setting [9]) and in data set [2] (setting [11]) was “N.O” throughout. The SHAKABILITY result in [3] (setting [9]) and in data set [3] (setting [11]) was “Yes” throughout.
For `CN(C/C=C/C#CC(C)(C)C)Cc1cccc2ccccc12` [terbinafine], in data set [8] (in common formulation excipients), the solubility result is on record as “hard to dissolve”. The “inhibition of the spreading of candida albicans” value is on record as “not effective” in the data set with candida albicans (control preparation, same concentration in an emulsion base) and “effectively inhibited the spreading” with candida albicans (dissolved in a hygroscopic carrier).
